Measured values: paper PMC5753150 (Beilstein Journal of Organic Chemistry, 2017)
“Also recorded” adds a separate entry of the source. *1 amine or outer side, *2 acyl side, *3 side chain or, on linkers, in order; H or OH if unused. Where a SMILES comes first, the peptide text is derived from it. [ ]: non-standard residue; d: D form. Leu(5,5,5,5',5',5'-F6) = N[C@@H](CC(C(F)(F)F)C(F)(F)F)C(=O)O; X1 = C[C@@H](CC(F)(F)F)[C@H](N[*:1])C(=O)[*:2]; 2Abz = Nc1ccccc1C(=O)O

Tests used:
elastase (EC 3.4.21.36) [1] = test: elastase in 100 mM Tris/HCl buffer, pH 8.4; conditions: porcine pancreas, 37 °C, up to 24 h
[2] = system: α-chymotrypsin (EC 3.4.21.1); test: α-chymotrypsin in 10 mM phosphate buffer, pH 7.4; conditions: bovine pancreas, 30 °C, up to 24 h
[3] = system: proteinase K (EC 3.4.21.64); test: proteinase K in 50 mM Tris/HCl buffer, containing 10 mM CaCl2 pH 7.5; conditions: tritirachium album, 37 °C, up to 24 h
pepsin (EC 3.4.23.1) [4] = test: pepsin in 10 mM acetate buffer, pH 4.0; conditions: porcine stomach mucosa, 30 °C, up to 24 h
[5] = biological target: T1, α-chymotrypsin (EC 3.4.21.1) (Bos taurus, UniProt P00766); test: Protease digestion assay with α-chymotrypsin (FL-RP-HPLC); type: in vitro ADME, bovine
T1 construct: purchased Sigma Aldrich; host or cells: bovine pancreas
Procedure: The FA peptide was used as a reference. […] All experiments were performed in triplicate.
The used linear gradients are
chromatograms where an insufficient baseline separation was observed,
(proteinase K)]. The obtained data were analyzed with EZChrom Elite software
Method Time [min] Water + 0.1% (v/v) TFA [%] ACN + 0.1% (v/v) TFA [%]

elastase (EC 3.4.21.36) [6] = biological target: elastase (EC 3.4.21.36) (Sus scrofa, UniProt P00772); conditions: elastase, 100 mM Tris/HCl buffer pH 8.4, 37 °C; for Proteolytic stability compared to control peptide FA after 24 h: FL-RP-HPLC; for Gain in stability upon fluorination compared to the non-fluorinated (Leu or Ile) analogue, 24 h: after 24 h
Sequence of elastase (EC 3.4.21.36) (Sus scrofa, UniProt P00772) (P00772 27-266): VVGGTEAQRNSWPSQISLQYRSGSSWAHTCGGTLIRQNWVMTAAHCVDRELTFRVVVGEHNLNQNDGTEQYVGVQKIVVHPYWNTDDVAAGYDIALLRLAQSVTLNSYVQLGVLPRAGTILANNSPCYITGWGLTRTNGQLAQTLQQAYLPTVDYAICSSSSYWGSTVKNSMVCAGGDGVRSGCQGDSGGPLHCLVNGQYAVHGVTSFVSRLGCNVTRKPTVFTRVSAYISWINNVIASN
Procedure: (§1) The course of proteolytic digestion was characterized by an analytical HPLC-assay with fluorescence detection. For quantification of substrate degradation, integration of the corresponding HPLC peak was conducted. Cleavage products were identified by ESI–ToF mass spectrometry (see Supporting Information File 1, Tables S4–S7).
(§2) All peptides employed in the degradation studies were used as the TFA salts obtained after lyophilization. Stock solutions of α-chymotrypsin (from bovine pancreas, EC 3.4.21.1, ≥40.0 units/mg of protein, Sigma Aldrich, St. Louis, MO, USA), and pepsin (from porcine stomach mucosa, EC 3.4.23.1, ≥250 units/mg of protein, Sigma Aldrich, St. Louis, MO, USA) were prepared at concentrations of 1 mg/mL in phosphate buffer (10 mM, pH 7.4), or in acetate buffer (10 mM, pH 4.0), respectively. For proteinase K (from tritirachium album, EC 3.4.21.64, ≥30 units/mg of protein, Sigma Aldrich, St. Louis, MO, USA) and elastase (from porcine pancreas, EC 3.4.21.36, 6.2 units/mg of protein, Sigma Aldrich, St. Louis, MO, USA) stock solutions were prepared also at concentrations of 1 mg/mL in tris/HCl (50 mM) + CaCl2 (10 mM) buffer (pH 7.5), or in tris/HCl buffer (100 mM, pH 8.4), respectively. Peptides (0.002 mmol) were prepared as stocks in DMSO (100 µL) and incubated with the respective enzyme at 30 °C (for α-chymotrypsin and pepsin) or 37 °C (for proteinase K and elastase) with shaking at 300 rpm in a thermomixer over a period of 24 h. The reaction mixture consisted of DMSO (15 µL), corresponding buffer (25 µL), peptide solution (5 µL) and the corresponding enzyme solution (5 µL). […] Aliquots of 5 µL were taken at fixed time points (0, 15, 30, 60, 90, 120 min as well as 3 h and 24 h) and either quenched with ACN containing 0.1% (v/v) TFA (95 µL), in the case of α-chymotrypsin, proteinase K and elastase, or 2% aqueous ammonia (95 µL), in the case of pepsin. All samples were subjected to analytical HPLC on a LaChrom-ELITE-HPLC-System equipped with a fluorescence detector (VWR International Hitachi, Darmstadt, Germany). A monolithic reversed-phase C8 Chromolith® Performance HPLC column (100 × 4.6 mm, Merck KGaA, Darmstadt, Germany) was used to resolve and quantify the products of digestion. The used system and gradients are described in detail in Supporting Information File 1. Detection based on the Abz label was carried out using a fluorescence detector with λex = 320 nm and λem = 420 nm. In all cases, the peaks corresponding to the starting materials (full-length peptides) or the N-terminal fragments (products) were integrated and used to determine the velocity of the reaction (see Supporting Information File 1). […] Each fragment cleaved from the full-length peptide was identified by ESI–ToF mass analysis on an Agilent 6220 ESI–ToF–MS spectrometer (Agilent Technologies, Santa Clara, CA, USA, see Supporting Information File 1). All experiments were performed in triplicate.
(§3) 2130) with solvent degasser, an autosampler (L-2200) with a 100 µL sample loop, a diode array flow detector (L-2455), a fluorescence detector (L-2485) and a high pressure gradient mixer. As eluents water and ACN, both containing 0.1% (v/v) TFA were used, and a flow rate of 3 mL/min was applied. The used linear gradients are […]
(§4) For the non-fluorinated peptides method A was used to follow the digestion process, and for the fluorinated peptides method B was applied. For […]
(§5) The obtained data were analyzed with EZChrom Elite software
(§6) (version 3.3.2, Agilent Technologies, Santa Clara, CA, USA).

pepsin (EC 3.4.23.1) [7] = biological target: pepsin (EC 3.4.23.1) (Sus scrofa, UniProt P00791); test: in vitro
Sequence of pepsin (EC 3.4.23.1) (Sus scrofa, UniProt P00791) (P00791 60-385): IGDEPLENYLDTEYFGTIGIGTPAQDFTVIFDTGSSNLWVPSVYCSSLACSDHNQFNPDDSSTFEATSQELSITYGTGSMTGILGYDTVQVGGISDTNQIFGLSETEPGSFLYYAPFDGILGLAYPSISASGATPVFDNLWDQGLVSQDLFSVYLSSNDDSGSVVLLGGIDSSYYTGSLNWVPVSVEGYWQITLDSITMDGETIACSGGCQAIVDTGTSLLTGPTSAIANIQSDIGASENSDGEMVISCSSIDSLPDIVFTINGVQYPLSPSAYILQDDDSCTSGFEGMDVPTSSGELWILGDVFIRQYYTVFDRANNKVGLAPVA
Procedure: as §1, §2, §3, §4, §5, §6

| Molecule | cleaved bond (elastase (EC 3.4.21.36) [1]) | not cleaved (elastase (EC 3.4.21.36) [1]) | cleaved bond [3] | cleaved bond (pepsin (EC 3.4.23.1) [4]) | cleaved bond [2] | other results |
| --- | --- | --- | --- | --- | --- | --- |
| Abz-KAHfLeuFAAAAK | HfLeu-F and A-A | no fragments with Phe in the P1 position observed | HfLeu-F and A-A | F-A and HfLeu-F | – | not cleaved [2]: not digested at all |
| CC(C)C[C@H](NC(=O)[C@H](C)NC(=O)[C@H](CCCCN)NC(=O)c1ccccc1N)C(=O)N[C@@H](Cc1ccccc1)C(=O)N[C@@H](C)C(=O)N[C@@H](C)C(=O)N[C@@H](C)C(=O)N[C@@H](C)C(=O)N[C@@H](CCCCN)C(=O)O [P2-LeuFA] (H-[2Abz]KALFAAAAK-OH) | – | – | – | – | – | Percentage of substrate remaining after incubation for 24 h ([5]; α-chymotrypsin (bovine pancreas), 10 mM phosphate buffer pH 7.4 with DMSO, 30 °C, 24 h, FL-RP-HPLC peak integration (Abz, λex 320/λem 420 nm), average of three independent measurements): complete proteolysis |
| Abz-KATfIleFAAAAK | TfIle-F and A-A | no fragments with Phe in the P1 position observed | F-A and A-A | – | – | not cleaved [2]: not digested at all; not cleaved (pepsin (EC 3.4.23.1) [4]): 100% after 24 h |
| C[C@H](NC(=O)[C@H](C)NC(=O)[C@@H](NC(=O)[C@H](Cc1ccccc1)NC(=O)[C@H](C)NC(=O)[C@H](C)NC(=O)[C@H](CCCCN)NC(=O)c1ccccc1N)[C@@H](C)CC(F)(F)F)C(=O)N[C@@H](C)C(=O)N[C@@H](CCCCN)C(=O)O [P1’-TfIleFA] (H-[2Abz]KAAF[X1]AAAK-OH) | – | – | – | – | – | Proteolytic stability compared to control peptide FA after 24 h (elastase (EC 3.4.21.36) [6]): comparably stable; Gain in stability upon fluorination compared to the non-fluorinated (Leu or Ile) analogue, 24 h (elastase (EC 3.4.21.36) [6]): accelerates enzymatic degradation |
| Abz-KAAFHfLeuAAAK | K-A and A-A | no fragments with Phe in the P1 position observed | A-F | F-HfLeu; also recorded: HfLeu-Ala | F-HfLeu, major; also recorded: HfLeu-A | – |
| Abz-KAAFAIleAAK | A-F and Ile-A and A-A and A-K | no fragments with Phe in the P1 position observed | A-F and A-Ile | F-A | F-A, major | – |
| Abz-KAAFAAAAK | A-A | no fragments with Phe in the P1 position observed | A-A | F-A | F-A, major | – |
| C[C@H](NC(=O)[C@H](C)NC(=O)[C@H](CC(C(F)(F)F)C(F)(F)F)NC(=O)[C@H](Cc1ccccc1)NC(=O)[C@H](C)NC(=O)[C@H](C)NC(=O)[C@H](CCCCN)NC(=O)c1ccccc1N)C(=O)N[C@@H](C)C(=O)N[C@@H](CCCCN)C(=O)O [P1’-HfLeuFA] (H-[2Abz]KAAF[Leu(5,5,5,5',5',5'-F6)]AAAK-OH) | – | – | – | – | – | Gain in proteolytic stability upon fluorination compared to the non-fluorinated (Leu or Ile) analogue ([5]; α-chymotrypsin, 10 mM phosphate buffer pH 7.4, 30 °C, after 24 h, FL-RP-HPLC): better substrate than the non-fluorinated Leu peptide; Proteolytic stability compared to control peptide FA after 120 min (pepsin (EC 3.4.23.1) [7]; pepsin, 10 mM acetate buffer pH 4.0, 30 °C, 120 min, FL-RP-HPLC): same persistence; Proteolytic stability compared to control peptide FA after 24 h (pepsin (EC 3.4.23.1) [7]; pepsin, 10 mM acetate buffer pH 4.0, 30 °C, 24 h, FL-RP-HPLC): somewhat more stable than the control FA; Stabilization upon fluorination compared to the non-fluorinated analogue, 120 min (pepsin (EC 3.4.23.1) [7]; pepsin, 10 mM acetate buffer pH 4.0, 30 °C, after 120 min): about 20%; Destabilization compared to the hydrocarbon analogue, 24 h (pepsin (EC 3.4.23.1) [7]; pepsin, 10 mM acetate buffer pH 4.0, 30 °C, after 24 h): 17%; Proteolytic stability compared to control peptide FA after 24 h (elastase (EC 3.4.21.36) [6]): more stable than the control peptide FA; Gain in stability upon fluorination compared to the non-fluorinated (Leu or Ile) analogue, 24 h (elastase (EC 3.4.21.36) [6]): 85% |
| Abz-KAAFLeuAAAK | K-A and A-A and A-F and A-K | no fragments with Phe in the P1 position observed | A-F and A-A | F-Leu; also recorded: Leu-Ala | F-Leu, major; also recorded: Leu-A | – |
| Abz-KAAFIleAAAK | A-F and A-A | no fragments with Phe in the P1 position observed | A-F and A-A | – | F-Ile, major | – |
| Abz-KAAFTfIleAAAK | A-A | no fragments with Phe in the P1 position observed | A-F and A-A | F-TfIle | F-TfIle, major | – |
| Abz-KAAFAHfLeuAAK | K-A and A-A and A-F and A-HfLeu | no fragments with Phe in the P1 position observed | A-HfLeu; also recorded: HfLeu-A | A-HfLeu | F-A, major | not cleaved (pepsin (EC 3.4.23.1) [4]): not hydrolyzed at the designed cleavage site |
| Abz-KAAFATfIleAAK | A-F and TfIle-A | no fragments with Phe in the P1 position observed | A-F | F-A and A-TfIle and A-F | F-A, major | – |
| Abz-KAIleFAAAAK | Ile-F and A-A and A-K | no fragments with Phe in the P1 position observed | F-A | F-A | F-A, major | – |
| CC[C@H](C)[C@H](NC(=O)[C@H](Cc1ccccc1)NC(=O)[C@H](C)NC(=O)[C@H](C)NC(=O)[C@H](CCCCN)NC(=O)c1ccccc1N)C(=O)N[C@@H](C)C(=O)N[C@@H](C)C(=O)N[C@@H](C)C(=O)N[C@@H](CCCCN)C(=O)O [P1’-IleFA] (H-[2Abz]KAAFIAAAK-OH) | – | – | – | – | – | Proteolytic stability compared to control peptide FA after 24 h (elastase (EC 3.4.21.36) [6]): more stable than the control peptide FA |
| Abz-KALeuFAAAAK | A-Leu and A-A and A-K | – | Leu-F and A-A | F-A | F-A, major | – |
| C[C@H](NC(=O)[C@H](C)NC(=O)[C@H](C)NC(=O)[C@H](Cc1ccccc1)NC(=O)[C@H](C)NC(=O)[C@H](C)NC(=O)[C@H](CCCCN)NC(=O)c1ccccc1N)C(=O)N[C@@H](C)C(=O)N[C@@H](CCCCN)C(=O)O [FA] (H-[2Abz]KAAFAAAAK-OH) | – | – | – | – | – | Percentage of substrate remaining after incubation for 24 h (pepsin (EC 3.4.23.1) [7]; pepsin (porcine stomach mucosa), 10 mM acetate buffer pH 4.0 with DMSO, 30 °C, 24 h, FL-RP-HPLC peak integration (Abz, λex 320/λem 420 nm), average of three independent measurements): almost completely degraded |
